Measured values published in article PMC8667882 (Journal of Enzyme Inhibition and Medicinal Chemistry, 2021).

Test system: CN (mouse brain extract)
Details: peptide 25 nM, RII substrate

**Q.** Which “effect on CN activity at 25 nM” value does the source give for GPHPVIVIT [pep1s] here?
**A.** minimal effects on CN activity
